In patent publication US8192962B2, “Processes for detecting toxic substances” (Daikin Industries, Ltd., priority 2001, dated 2012):

Tested on: Mitochondria-located protein genes
Experiment: DNA chip mRNA expression in yeast, mitochondria-located protein genes (Table 2)
Type: cell-based, Saccharomyces cerevisiae S288C
Conditions: cells incubated two hours with the chemical substance
Procedure: Yeast (Saccharomyces cerevisiae S288C (α SUC2mal mel gap2 CUP1)) were incubated at 25° C. on YPD medium (yeast extract 1%, polypepton 2%, glucose 2%). One of toxic chemical substances was added to the cells at logarithmic growth phase, and the cells were further incubated for two hours. Cells were cultured without any chemical substance in the same condition, and were used as control. Concentrations of the chemical substances were defined to inhibit the growth of the yeast but not lead to death.
After completion of the incubation, the culture was centrifuged to collect the cells. To the cells, sodium acetate buffer (50 mM sodium acetate, 10 mM EDTA, 1% SDS) was added, and the mixture was shaken at 65° C. for five minutes, followed by returning to room temperature, and obtaining the supernatant, of which the procedures were repeated two times. To the supernatant, ½ amount of a solution of phenol/chloroform was added, and the mixture was centrifuged to give a supernatant, which was added with an equal amount of chloroform, and the mixture was centrifuged to give a supernatant. To the supernatant, an equal amount of isopropanol containing 0.3 M sodium acetate was added, and the mixture was allowed to stand at room temperature for 30 minutes, after which the mixture was centrifuged to give a sediment of the whole RNAs. Seventy % ethanol was added to the sediment, and the mixture was again centrifuged to give a sediment, which was then dried and dissolved in water. mRNA was isolated from the whole RNAs as followings. In view of the fact that a poly A chain is attached to the 3′ terminus of mRNA, a polynucleotide having a poly T structure which was immobilized on the surface of latex beads was used to trap the mRNA, and then the mRNA was washed and eluted with spine column (Oligotex-dT30<Super>mRNA Purification Kit, Takara). Reverse transcription of the mRNA was conducted with a reverse transcriptase (Super Script II Reverse Transcriptase; catalogue No. 18064-014, GibcoBRL) using fluorescence-labeled nucleotides to give cDNAs that were introduced with Cy3-dUTP or Cy5-dUTP during the reverse transcription.
The labeled cDNAs were dissolved in TE buffer (10mM Tris-HCl/1 mM EDTA, pH8.0), and the solution was dropped on the DNA chip containing the whole genes of yeast (DNA Chip Research Inc. Japan) so that the cDNAs were hybridized on the DNA chip at 65° C. for over 12 hours. The fluoresces intensity of the DNA chip was read with a scanner, and the ratio relative to the fluorescence intensity resulting from the absence of chemical substance was estimated as the following, which is shown in Tables 1 to 9: […]

Measured: The level of expressed mRNA in the presence of chemical substance/The level of expressed mRNA in the absence of chemical substance

[Cl][Cd][Cl] [(2), CdCl2]
2.5: yeast gene YOR316C
2.7: yeast gene YKL142W
0.7: yeast gene YBR221C | yeast gene YEL039C | yeast gene YIL155C | yeast gene YJL102W | yeast gene YKL003C | yeast gene YKL194C | yeast gene YMR203W
1.0: yeast gene YBR091C | yeast gene YBR185C | yeast gene YBR282W | yeast gene YDL067C | yeast gene YDL198C | yeast gene YDR529C | yeast gene YFL016C | yeast gene YGL018C | yeast gene YGR062C | yeast gene YJL096W | yeast gene YJL133W | yeast gene YLR259C | yeast gene YOL096C | yeast gene YPL040C | yeast gene YPL134C | yeast gene YPR024W | yeast gene YPR047W
1.7: yeast gene YMR035W | yeast gene YMR083W | yeast gene YOR130C | yeast gene YPL262W
4.5: yeast gene YLR348C
2.0: yeast gene YDR178W
1.3: yeast gene YKL016C | yeast gene YLR395C | yeast gene YMR023C | yeast gene YNL104C
2.2: yeast gene YAL039C
1.4: yeast gene YBR044C | yeast gene YKR066C | yeast gene YNL073W | yeast gene YOR100C
1.6: yeast gene YDR231C | yeast gene YGL191W | yeast gene YGR076C | yeast gene YGR174C | yeast gene YJL180C | yeast gene YNL256W
2.3: yeast gene YDR258C | yeast gene YPR037C
0.8: yeast gene YBL022C | yeast gene YBR003W | yeast gene YDR347W | yeast gene YGL187C | yeast gene YKL148C | yeast gene YKL170W
1.9: yeast gene YJR045C | yeast gene YPL215W
0.5: yeast gene YLL041C | yeast gene YOR187W
2.1: yeast gene YOR020C
2.6: yeast gene YOR176W
0.9: yeast gene YBL030C | yeast gene YBL038W | yeast gene YBL099W | yeast gene YBR122C | yeast gene YBR251W | yeast gene YEL024W | yeast gene YER178W | yeast gene YGR082W | yeast gene YML129C | yeast gene YNL071W
2.8: yeast gene YCR083W
1.8: yeast gene YDL181W | yeast gene YML054C | yeast gene YMR267W | yeast gene YNL055C
3.0: yeast gene YGR008C
1.1: yeast gene YDR079W | yeast gene YDR377W | yeast gene YJR077C | yeast gene YJR121W | yeast gene YKL141W | yeast gene YLR038C | yeast gene YLR295C | yeast gene YMR089C | yeast gene YMR152W | yeast gene YPR134W
3.5: yeast gene YGR028W
5.4: yeast gene YHR008C
1.2: yeast gene YCR046C | yeast gene YDR298C | yeast gene YGR244C | yeast gene YML120C | yeast gene YOR142W | yeast gene YOR150W | yeast gene YPL135W
0.6: yeast gene YLR304C
1.5: yeast gene YCL057W | yeast gene YJL166W | yeast gene YOR037W
